According to paper PMC7191558, “Use of BODIPY-Labeled ATP Analogues in the Development and Validation of a Fluorescence Polarization-Based Assay for Screening of Kinase Inhibitors” (ACS Omega, 2020):

Biological target: T1, Protein Kinase A catalytic subunit (PKA) (Bos taurus, UniProt P00517)
T1 construct: gene PRKACA; catalytic subunit (from bovine heart, Merck)
Experiment: fluorescence polarization competition with BODIPY FL ATP-γ-S
Assay type: binding

- IC50: ~1130 µM
SMILES: CC1CNCCN1S(=O)(=O)c1cccc2cnccc12 (stereo not shown) [H7]
